Laboratory results from US5541169A, “Azoxy compound” (Kowa Company, Ltd., priority 1992, dated 1996).
Values after ≈ are worked out from the molar mass of the structure shown.

Experiments:
Candida albicans = assay: Minimum inhibitory concentration, agar plate dilution method (Sabouraud dextrose medium); assay type: cell-based; details: C.a.
Protocol: (§1) The minimum inhibition concentration was assayed by the agar plate dilution method using Sabouraud dextrose medium.

Microsporum canis = assay: as above; assay type: cell-based; details: M.c.
Protocol: as §1

[1] = test system: Trichophyton mentagrophytes; assay: as above; assay type: cell-based; details: T.m.
Protocol: as §1

Trichophyton rubrum = assay: as above; assay type: cell-based; details: T.r.
Protocol: as §1

[2] = Stability in ethanol (residual ratio by HPLC); assay type: physicochemical; details: 50% ethanol, 50% ethanol solution, 0.01%; for remaining at 2160 h: 3 months; for remaining at 288 h: 12 days
Protocol: The residual ratio was determined under the following conditions by the HPLC method.
*Measured in a 50% ethanol solution (sample concentration: 0.01%)
Column: STR ODSM 4.6 × 150 mm
Injection volume: 40 μl
Mobile phase: CH3 CN:H2 O (1:1)
Temperature: room temperature

fungi = details: prior-art compounds; cited from earlier work
[3] = prior-art compounds; cited from earlier work

SMILES: CC(=C[N+]([O-])=NC(C)C(C)OCC#CI)c1ccccc1Cl (centres unmarked) [Example 2, 3-(2-(2-chlorophenyl)-1-propenyl-ONN-azoxy)-2-(3-iodo-2-propynyloxy)butane]
- MIC (Candida albicans): 50 µg/mL (≈ 116 µM)
- MIC (Microsporum canis): 1.6 µg/mL (≈ 3.7 µM)
- MIC [1]: 1.6 µg/mL (≈ 3.7 µM)
- MIC (Trichophyton rubrum): 1.6 µg/mL (≈ 3.7 µM)

SMILES: C[C@H](N=[N+]([O-])C=Cc1ccc(OCC#CI)cc1)[C@@H](C)O [5 (2R), 2(R)-3(S)-3-(4-(3-iodo-2-propynyloxy)styryl-ONN-azoxy)-2-butanol]
- MIC (Candida albicans): 12.5 µg/mL (≈ 31.2 µM)
- MIC (Microsporum canis): 1.6 µg/mL (≈ 4 µM)
- MIC [1]: 0.8 µg/mL (≈ 2 µM)
- MIC (Trichophyton rubrum): 1.6 µg/mL (≈ 4 µM)
- remaining at 2160 h ([2]; 4° C.): 99.6%
- remaining at 2160 h ([2]; 25° C.): 99.3%
- remaining at 2160 h ([2]; 40° C.): 92.7%
- remaining at 2160 h ([2]; pH 4, pH 4, 40° C.): 101%
- remaining at 2160 h ([2]; pH 6, pH 6, 40° C.): 101%
- remaining at 2160 h ([2]; pH 8, pH 8, 40° C.): 83.6%

SMILES: CC(O)C(C)N=[N+]([O-])c1ccc(OCC#CI)cc1 (centres unmarked) [Example 11, 3-(4-(3-iodo-2-propynyloxy)phenyl-ONN-azoxy)-2-butanol]
- MIC (Candida albicans): 6.3 µg/mL (≈ 16.8 µM)
- MIC (Microsporum canis): 0.8 µg/mL (≈ 2.14 µM)
- MIC [1]: 1.6 µg/mL (≈ 4.28 µM)
- MIC (Trichophyton rubrum): 1.6 µg/mL (≈ 4.28 µM)

SMILES: CC(=NO)[C@H](C)N=[N+]([O-])/C=C/c1ccc(OCC#CI)cc1 [Control, reference compound]
- remaining at 288 h ([2]; 4° C.): 99.3%
- remaining at 288 h ([2]; 25° C.): 95.8%
- remaining at 288 h ([2]; 40° C.): 96.6%
- remaining at 288 h ([2]; pH 4, pH 4, 40° C.): 0%
- remaining at 288 h ([2]; pH 6, pH 6, 40° C.): 79.7%
- remaining at 288 h ([2]; pH 8, pH 8, 40° C.): 91.4%

SMILES: C#CCOc1ccc(C=C[N+]([O-])=NC(C)C(C)O)cc1 (centres unmarked) [Example 3, 3-(4-(2-propynyloxy)styryl-ONN-azoxy)-2-butanol]
- MIC (Candida albicans): 25 µg/mL (≈ 91.1 µM)
- MIC (Microsporum canis): 0.2 µg/mL (≈ 0.729 µM)
- MIC (Trichophyton rubrum): 0.2 µg/mL (≈ 0.729 µM)

SMILES: C[C@H](O)[C@H](C)N=[N+]([O-])C=Cc1ccc(OCC#CI)cc1 [5 (2S), 2(S)-3(S)-3-(4-(3-iodo-2-propynyloxy)styryl-ONN-azoxy)-2-butanol]
- MIC (Candida albicans): 6.3 µg/mL (≈ 15.7 µM)
- MIC (Microsporum canis): 1.6 µg/mL (≈ 4 µM)
- MIC [1]: 0.8 µg/mL (≈ 2 µM)
- MIC (Trichophyton rubrum): 1.6 µg/mL (≈ 4 µM)
- remaining at 2160 h ([2]; 4° C.): 99.8%
- remaining at 2160 h ([2]; 25° C.): 97.4%
- remaining at 2160 h ([2]; 40° C.): 86.1%
- remaining at 2160 h ([2]; pH 4, pH 4, 40° C.): 100%
- remaining at 2160 h ([2]; pH 6, pH 6, 40° C.): 99.1%
- remaining at 2160 h ([2]; pH 8, pH 8, 40° C.): 74.2%

SMILES: CCCC/C=C/[N+]([O-])=N[C@@H](C)C(C)=O [KA-7367A]
- antifungal activity (in words) (fungi): excellent antifungal activity
- stability (in words) [3]: unstable

SMILES: C[C@H](N=[N+]([O-])c1ccc(OCC#CI)cc1)[C@@H](C)O [Example 17, 2(R)-3(S)-3-(4-(3-iodo-2-propynyloxy)phenyl-ONN-azoxy)-2-butanol]
- MIC (Candida albicans): 6.3 µg/mL (≈ 16.8 µM)
- MIC (Microsporum canis): 0.8 µg/mL (≈ 2.14 µM)
- MIC [1]: 1.6 µg/mL (≈ 4.28 µM)
- MIC (Trichophyton rubrum): 1.6 µg/mL (≈ 4.28 µM)
- remaining at 2160 h ([2]; 4° C.): 100%
- remaining at 288 h ([2]; 4° C.): 100%
- remaining at 2160 h ([2]; 25° C.): 99.4%
- remaining at 288 h ([2]; 25° C.): 102%
- remaining at 2160 h ([2]; 40° C.): 100%
- remaining at 288 h ([2]; 40° C.): 99.8%
- remaining at 2160 h ([2]; pH 4, pH 4, 40° C.): 100%
- remaining at 288 h ([2]; pH 4, pH 4, 40° C.): 99.7%
- remaining at 2160 h ([2]; pH 6, pH 6, 40° C.): 99.9%
- remaining at 288 h ([2]; pH 6, pH 6, 40° C.): 100%
- remaining at 2160 h ([2]; pH 8, pH 8, 40° C.): 100%
- remaining at 288 h ([2]; pH 8, pH 8, 40° C.): 100%

SMILES: CC(=C[N+]([O-])=NC(C)COCC#CI)c1ccc(Cl)cc1 (centres unmarked) [Example 1, 2-(2-(4-chlorophenyl)-1-propenyl-ONN-azoxy)-1-(3-iodo-2-propynyloxy)propan]
- MIC (Candida albicans): 50 µg/mL (≈ 119 µM)
- MIC (Microsporum canis): 1.6 µg/mL (≈ 3.82 µM)
- MIC [1]: 0.4 µg/mL (≈ 0.955 µM)
- MIC (Trichophyton rubrum): 0.8 µg/mL (≈ 1.91 µM)
